Assay results taken from US9234000B2, “Benzylamine derivatives as inhibitors of plasma kallikrein” (KalVista Pharmaceuticals Limited, priority 2011, dated 2016).
pIC50: −log10 of the molar value. Values after ≈ are worked out from the molar mass of the structure shown. Read-outs that look alike come from different tables or passages of the source.

What was measured:
physchem = conditions: pH 7, aqueous buffer, kinetic from dmso stock
Description: Determination of the Kinetic Solubility in Phosphate Buffer
After shaking for approximately 30 seconds the reduction in light transmission of these samples, at 650 nm, was measured (Molecular Devices Spectromax UV/visible spectrophotometer). A second measurement was taken at approximately 30 seconds later.

[1] = Determination of thermodynamic solubility in phosphate buffer; format: physicochemical; conditions: pH 7.4, aqueous buffer, thermodynamic from solid, ammonium phosphate buffer pH7.4, 290 mOsm, 37° C., nominal 1 mg/mL, read-out: Solubility in PO4 buffer
In short: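 Compound at nominal 1 mg/mL in ammonium phosphate buffer (pH7.4, 290 mOsm), shaken 1 h at 37° C., then centrifuged 15,000 g for 10 minutes at 37° C. Supernatant concentration measured by LC-MS/MS against a calibration line from a DMSO stock.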

Human plasma kallikrein = Human plasma kallikrein (Homo sapiens (Human), UniProt P03952); test: Determination of the IC50 for plasma kallikrein; format: biochemical; conditions: 37° C., read-out: IC50 (human PKal)
Chain of Human plasma kallikrein (P03952 391-638): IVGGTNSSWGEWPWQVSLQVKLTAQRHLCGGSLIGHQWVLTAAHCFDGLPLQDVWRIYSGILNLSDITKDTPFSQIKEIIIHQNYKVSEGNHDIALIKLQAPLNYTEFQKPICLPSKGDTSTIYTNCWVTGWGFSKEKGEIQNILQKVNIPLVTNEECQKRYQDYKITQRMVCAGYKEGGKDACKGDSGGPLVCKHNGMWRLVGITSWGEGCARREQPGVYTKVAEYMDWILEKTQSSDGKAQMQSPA
Chain of Human plasma kallikrein (P03952 20-390 partner): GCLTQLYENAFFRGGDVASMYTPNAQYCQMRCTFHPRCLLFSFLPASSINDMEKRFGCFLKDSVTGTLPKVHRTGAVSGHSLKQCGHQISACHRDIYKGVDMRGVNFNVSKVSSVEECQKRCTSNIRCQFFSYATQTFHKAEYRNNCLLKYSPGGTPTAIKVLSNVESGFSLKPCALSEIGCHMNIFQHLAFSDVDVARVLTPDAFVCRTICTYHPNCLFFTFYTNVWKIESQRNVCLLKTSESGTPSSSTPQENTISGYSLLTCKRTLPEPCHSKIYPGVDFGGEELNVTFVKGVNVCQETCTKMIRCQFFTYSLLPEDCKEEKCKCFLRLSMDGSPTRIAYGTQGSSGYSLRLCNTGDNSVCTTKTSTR
In short: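 Human plasma kallikrein incubated at 37° C with fluorogenic substrate H-DPro-Phe-Arg-AFC and varying compound concentrations. Initial reaction rate followed by absorbance change at 410 nm to give residual activity and IC50.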

Human KLK1 = Human KLK1 (Homo sapiens (Human), UniProt P06870); test: Determination of the IC50 for KLK1; format: biochemical; conditions: Human KLK1, 37° C., substrate H-DVal-Leu-Arg-AFC
Chain of Human KLK1 (P06870 25-262): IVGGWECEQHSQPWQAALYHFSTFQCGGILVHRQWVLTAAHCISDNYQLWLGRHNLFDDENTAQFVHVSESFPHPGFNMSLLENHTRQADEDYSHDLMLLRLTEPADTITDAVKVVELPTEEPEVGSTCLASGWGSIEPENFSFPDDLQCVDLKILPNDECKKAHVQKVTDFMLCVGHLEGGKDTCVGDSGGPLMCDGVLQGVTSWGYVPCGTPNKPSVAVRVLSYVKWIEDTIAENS
In short: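 Human KLK1 incubated at 37 °C with fluorogenic substrate H-DVal-Leu-Arg-AFC and a range of test compound concentrations. Residual activity was taken as initial reaction rate from absorbance change at 410 nm, and the IC50 derived from it.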

thrombin = thrombin (Homo sapiens (Human), UniProt P00734); test: Determination of enzyme selectivity: thrombin; format: biochemical; conditions: substrate at Km
Description: (§1) Determination of Enzyme Selectivity

plasmin = plasmin (Homo sapiens (Human), UniProt P00747); test: Determination of enzyme selectivity: plasmin; format: biochemical; conditions: substrate at Km
Chain of plasmin (P00747 whole entry, looked up, change not shown): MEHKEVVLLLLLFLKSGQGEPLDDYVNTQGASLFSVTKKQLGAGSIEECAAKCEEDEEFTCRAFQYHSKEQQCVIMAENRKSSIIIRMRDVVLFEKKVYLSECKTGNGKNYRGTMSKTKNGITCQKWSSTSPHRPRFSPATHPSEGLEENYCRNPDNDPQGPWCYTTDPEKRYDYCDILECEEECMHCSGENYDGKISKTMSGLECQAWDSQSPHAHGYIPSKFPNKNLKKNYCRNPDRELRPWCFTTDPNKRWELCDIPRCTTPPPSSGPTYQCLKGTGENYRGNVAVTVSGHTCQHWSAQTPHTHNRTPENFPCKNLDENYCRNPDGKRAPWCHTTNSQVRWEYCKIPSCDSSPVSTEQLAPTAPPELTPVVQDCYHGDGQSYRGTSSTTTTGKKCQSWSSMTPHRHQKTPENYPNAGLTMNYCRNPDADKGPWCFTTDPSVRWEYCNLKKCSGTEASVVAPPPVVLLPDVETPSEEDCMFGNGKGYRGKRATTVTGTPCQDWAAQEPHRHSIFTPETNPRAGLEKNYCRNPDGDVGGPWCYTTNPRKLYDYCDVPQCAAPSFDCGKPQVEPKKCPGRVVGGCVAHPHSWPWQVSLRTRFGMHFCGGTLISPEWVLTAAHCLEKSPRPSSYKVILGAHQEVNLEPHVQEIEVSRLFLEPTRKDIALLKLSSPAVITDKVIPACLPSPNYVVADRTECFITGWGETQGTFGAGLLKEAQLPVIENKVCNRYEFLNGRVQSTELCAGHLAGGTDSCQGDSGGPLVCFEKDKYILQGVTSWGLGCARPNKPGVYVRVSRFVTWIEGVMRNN
Chain of plasmin (P00747 whole entry partner, looked up): as the sequence (P00747 whole entry, looked up, change not shown) above
Description: as §1

Factor Xa = Factor Xa (Homo sapiens (Human), UniProt P00742); test: Determination of enzyme selectivity: Factor Xa; format: biochemical; conditions: substrate at Km
Chain of Factor Xa (P00742 235-488): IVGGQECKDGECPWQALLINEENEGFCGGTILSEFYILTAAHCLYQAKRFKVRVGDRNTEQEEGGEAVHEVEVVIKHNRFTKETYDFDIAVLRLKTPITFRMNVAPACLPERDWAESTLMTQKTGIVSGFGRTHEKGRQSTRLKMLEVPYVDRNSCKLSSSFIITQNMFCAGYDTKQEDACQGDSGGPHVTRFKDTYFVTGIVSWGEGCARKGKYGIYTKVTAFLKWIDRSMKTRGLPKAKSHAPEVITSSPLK
Chain of Factor Xa (P00742 41-179 partner): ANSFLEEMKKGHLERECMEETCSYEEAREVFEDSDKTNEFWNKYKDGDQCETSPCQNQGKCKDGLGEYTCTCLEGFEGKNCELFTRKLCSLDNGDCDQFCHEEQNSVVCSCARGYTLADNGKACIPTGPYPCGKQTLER
Description: as §1

Factor XIIa = Factor XIIa (Homo sapiens (Human), UniProt P00748); test: Determination of enzyme selectivity: Factor XIIa; format: biochemical; conditions: fluorogenic substrate at Km concentration
Chain of Factor XIIa (P00748 373-615): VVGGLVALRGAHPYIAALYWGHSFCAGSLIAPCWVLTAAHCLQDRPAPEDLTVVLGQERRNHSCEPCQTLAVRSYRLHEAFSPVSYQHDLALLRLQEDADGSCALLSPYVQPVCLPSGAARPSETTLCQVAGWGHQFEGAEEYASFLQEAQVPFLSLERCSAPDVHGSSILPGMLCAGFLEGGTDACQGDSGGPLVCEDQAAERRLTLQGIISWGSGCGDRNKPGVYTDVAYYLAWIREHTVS
Description: as §1
Human serine protease enzymes plasmin, thrombin, trypsin, Factor Xa and Factor XIIa were assayed for enzymatic activity using an appropriate fluorogenic substrate. Protease activity was measured by monitoring the accumulation of liberated fluorescence from the substrate over 5 minutes. The linear rate of fluorescence increase per minute was expressed as percentage (%) activity. The Km for the cleavage of each substrate was determined by standard transformation of the Michaelis-Menten equation.

CA-I stimulated RVP = test: Carbonic anhydrase I induced retinal vascular permeability model; format: in vivo, Sprague Dawley rats; conditions: rat
Description: Carbonic Anhydrase I Induced Retinal Vascular Permeability Model
After 30 mins, a second intravitreal injection (5 μL) of PBS or CA-I (200 ng/eye) was given. After 15 minutes, 10% sodium fluorescein was infused and retinal vascular permeability (RVP) was measured by vitreous fluorophotometry 75 minutes following the initial IVT injections.

[2] = Ocular and systemic pharmacokinetics following a single IVT dose; format: in vivo, pigmented (Dutch-belted) rabbits; conditions: rabbit
Description: A pharmacokinetic study of Example 3 was performed to assess the ocular and systemic pharmacokinetics following a single IVT dose in pigmented (Dutch-belted) rabbits. […] Serial blood samples were collected in surviving rabbits.
Ocular tissue concentration data are presented in FIG. 2, in which the solid line for each ocular tissue concentration is the average of the left and right eye of each rabbit.

Row | SMILES | solubility at 1 h [1] [µg/mL] | pIC50 (Factor XIIa) | pIC50 (Human plasma kallikrein; substrate H-DPro-Phe-Arg-AFC) | pIC50 (Human KLK1; Table 13) | also measured
1 | CCOc1ccc(C[C@@H](NC(=O)c2ccccc2)C(=O)N[C@@H](Cc2ccccc2)C(=O)NCc2ccc(CN)cc2)cc1 [Example 3, N—[(R)-1-[(S)-1-(4-Aminomethyl-benzylcarbamoyl)-2-phenyl-ethylcarbamoyl]-2-(4-ethoxy-phenyl)-ethyl]-benzamide] | 10 (≈ 17.3 µM) | < 5.00 | – | – | solubility (physchem): 12 µM (≈ 6.94 µg/mL); pIC50 (Human plasma kallikrein; fluorogenic substrate H-DPro-Phe-Arg-AFC): 7.66; pIC50 (Human KLK1; Table 12): < 5.00; pIC50 (thrombin): < 4.40; pIC50 (plasmin): 5.46; pIC50 (Factor Xa): < 5.00; reduction of RVP stimulated by CA-I injection (CA-I stimulated RVP; intravitreal injection 1 μM (5 μL), CA-I 200 ng/eye, RVP measured at 75 minutes): 53±21%; basal RVP (CA-I stimulated RVP; intravitreal injection of 1 μM alone (no CA-I), PBS alone 3.64±0.48, no effect): 3.29±0.21; decline in ocular tissue concentrations ([2]; IVT 210 ng per eye, vitreous, retina/choroid, aqueous humour, over 7 days): minimal; Plasma concentrations following IVT administration ([2]; single bilateral IVT 210 ng per eye, all time points): below 1 ng/mL
2 | CCOc1ccc(C[C@@H](NC(=O)c2ccc(C)cc2)C(=O)N[C@@H](Cc2cccnc2)C(=O)NCc2ccc(CN)cc2)cc1 [Example 199, N—[(R)-1-[(S)-1-(4-Aminomethyl-benzylcarbamoyl)-2-pyridin-3-yl-ethylcarbamoyl]-2-(4-ethoxy-phenyl)-ethyl]-4-methyl-benzamide] | 15.9 (≈ 26.7 µM) | < 5.00 | 8.00 | < 5.00 | –
3 | CCOc1ccc(C[C@@H](NC(=O)c2sccc2Cl)C(=O)N(C)[C@@H](Cc2ccccc2)C(=O)NCc2ccc(CN)cc2)cc1 [Example 196, 3-Chloro-thiophene-2-carboxylic acid [(R)-1-{[(S)-1-(4-aminomethyl-benzylcarbamoyl)-2-phenyl-ethyl]-methyl-carbamoyl}-2-(4-ethoxy-phenyl)-ethyl]-amide] | – | < 5.00 | 7.49 | 5.00 | –
4 | CCOc1ccc(C[C@@H](NC(=O)c2cc(Cl)cc(Cl)c2)C(=O)N[C@@H](Cc2ccccc2)C(=O)NCc2ccc(CN)cc2)cc1 [Example 94, N-[(R)-1-[(S)-1-(4-Aminomethyl-benzylcarbamoyl)-2-phenyl-ethylcarbamoy]-2-(4-ethoxy-phenyl)-ethyl]-3,5-dichloro-benzamide] | – | < 5.00 | 5.97 | < 5.00 | –
5 | CCOc1ccc(C[C@@H](NC(=O)C23CC4CC(CC(C4)C2)C3)C(=O)N[C@@H](Cc2ccccc2)C(=O)NCc2ccc(CN)cc2)cc1 [Example 91, Adamantane-1-carboxylic acid [(R)-1-[(S)-1-(4-aminomethyl-benzylcarbamoyl)-2-phenyl-ethylcarbamoyl]-2-(4-ethoxy-phenyl)-ethyl]-amide] | – | < 5.00 | 5.68 | < 5.00 | –

More lines, main results first:

Row | solubility at 1 h [1] [µg/mL] | pIC50 (Factor XIIa) | pIC50 (Human plasma kallikrein; substrate H-DPro-Phe-Arg-AFC) | pIC50 (Human KLK1; Table 13) | SMILES | also measured
6 | 4.77 (≈ 8.14 µM) | < 5.00 | 7.44 | < 5.00 | CCOc1ccc(C[C@@H](NC(=O)c2ccccn2)C(=O)N[C@@H](Cc2cccs2)C(=O)NCc2ccc(CN)cc2)cc1 [Example 157, Pyridine-2-carboxylic acid [(R)-1-[(S)-1-(4-aminomethyl-benzylcarbamoyl)-2-thiophen-2-yl-ethylcarbamoyl]-2-(4-ethoxy-phenyl)-ethyl]-amide] | –
7 | – | < 5.00 | 7.44 | < 5.00 | CCOc1ccc(C[C@@H](NC(=O)c2sccc2NC(C)=O)C(=O)N[C@@H](Cc2csc3ccccc23)C(=O)NCc2ccc(CN)cc2)cc1 [Example 188, 3-Acetylamino-thiophene-2-carboxylic acid [(R)-1-[(S)-1-(4-aminomethyl-benzylcarbamoyl)-2-benzo[b]thiophen-3-yl-ethylcarbamoyl]-2-(4-ethoxy-phenyl)-ethyl]-amide] | –
8 | 0.01 (≈ 0.0154 µM) | < 5.00 | 6.76 | < 5.00 | CCOc1ccc(C[C@@H](NC(=O)c2ccc(Cl)c(Cl)c2)C(=O)N[C@@H](Cc2ccccc2)C(=O)NCc2ccc(CN)cc2)cc1 [Example 93, N-[(R)-1-[(S)-1-(4-Aminomethyl-benzylcarbamoyl)-2-phenyl-ethylcarbamoyl]-2-(4-ethoxy-phenyl)-ethyl]-3,4-dichloro-benzamide] | –
9 | – | < 5.00 | 7.60 | < 5.00 | CCOc1ccc(C[C@@H](NC(=O)c2sccc2NC(C)=O)C(=O)N[C@@H](Cc2ccsc2)C(=O)NCc2ccc(CN)cc2)cc1 [Example 193, 3-Acetylamino-thiophene-2-carboxylic acid [(R)-1-[(S)-1-(4-aminomethyl-benzylcarbamoyl)-2-thiophen-3-yl-ethylcarbamoyl]-2-(4-ethoxy-phenyl)-ethyl]-amide] | –
10 | – | < 5.00 | 7.70 | < 5.00 | CCOc1ccc(C[C@@H](NC(=O)c2[nH]c(C)cc2C)C(=O)N[C@@H](Cc2ccccc2)C(=O)NCc2ccc(CN)cc2)cc1 [Example 191, 3,5-Dimethyl-1H-pyrrole-2-carboxylic acid [(R)-1-[(S)-1-(4-aminomethyl-benzylcarbamoyl)-2-phenyl-ethylcarbamoyl]-2-(4-ethoxy-phenyl)-ethyl]-amide] | –
